Laboratory results reported in PMC9545474, “Anticancer Water‐Soluble Organoruthenium Complexes: Synthesis and Preclinical Evaluation” (Chembiochem, 2022).

Key:
[1] = mice
Method: Compounds: All compounds were provided in powdered form and stored in the −20 °C freezer. They were formulated just before use. […] The drugs were then administered within 10 minutes of initial dilution.
Animals: Female Balb/c immunodeficient nude mice aged 6–12 weeks were used (Envigo, Blackthorn, UK). Mice were kept in cages housed in isolation cabinets in an air‐conditioned room with regular alternating cycles of light and darkness. They received Teklad 2018 diet (Envigo, Blackthorn, UK) and water ad libitum. All animal procedures were carried out under a project licence issued by the UK Home Office and UK National Cancer Research Institute Guidelines for the Welfare of Animals were followed throughout.
(1 picture or pasted object on this page, not shown here)

[2] = Reactivity with NAC by NMR; type: physicochemical; settings: NMR studies over 24 hours

| Compound | maximum tolerated dose (MTD) ([1]; i.p. daily, monitored for a further two weeks) [mg/kg] | Toxicity in MTD run ([1]; i.p., 15mg/kg in 20 % DMSO/arachis oil, full run) | Reaction with NAC [2] |
| --- | --- | --- | --- |
| Cc1ccc(C(C)C)cc1.N#CC1=C(C#N)[S][Ru-]([P+](c2ccccc2)(c2ccccc2)c2ccccc2)[S]1 [Complex 8, (η^6‐p‐cymene)(PPh3)Ru(Mnt)] | 15 | no evidence of toxicity was seen |  |
| (η^6‐p‐cymene)(TPPTS)Ru(Mnt) [Complex 6] |  |  | do not react together |
